Experimental data as given in US20240226343A1, “NEUROPEPTIDE Y1 RECEPTOR (NPY1R) TARGETED THERAPEUTICS AND USES THEREOF” (RADIONETICS ONCOLOGY, INC., priority 2022, published 2024).

The molecules below were run against T1, hNPY1R (Homo sapiens, UniProt P25929) (assay: NPY1R binding assay: SK-N-MC membranes, [125I]-Peptide YY (human) competition). Conditions: data obtained after 60 minutes at 37° C.; SK-N-MC membranes; [125I]-Peptide YY 0.05 nM; read-out: hNPY1R binding Ki* †.
T1 construct: SK-N-MC cells endogenously expressing the NPY1R receptor; endogenous in cells; host or cells: SK-N-MC cells (crude membrane fractions)
T1 sequence (P25929 1-384): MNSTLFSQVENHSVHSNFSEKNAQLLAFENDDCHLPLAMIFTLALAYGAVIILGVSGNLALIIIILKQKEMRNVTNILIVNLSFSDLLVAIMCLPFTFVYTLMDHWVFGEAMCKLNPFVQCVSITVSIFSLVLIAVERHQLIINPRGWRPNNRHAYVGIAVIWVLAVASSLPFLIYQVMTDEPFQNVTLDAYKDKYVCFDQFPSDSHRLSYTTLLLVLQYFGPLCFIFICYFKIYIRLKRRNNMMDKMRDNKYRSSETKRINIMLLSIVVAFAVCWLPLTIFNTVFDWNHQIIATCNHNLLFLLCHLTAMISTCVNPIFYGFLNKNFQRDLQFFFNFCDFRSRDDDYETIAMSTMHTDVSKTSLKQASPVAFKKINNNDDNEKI
Protocol: Crude membrane fractions are prepared from SK-N-MC cells endogenously expressing the NPY1R receptor. The cells are grown to 85-100% confluence on standard tissue culture dishes in Eagle's Minimum Essential Medium supplemented with 10% dialyzed FBS. To prepare membranes, cells are scraped and collected in 1× Dulbecco's phosphate buffered saline and then pelleted at 1000 RPM's. The cell pellet is reconstituted in membrane preparation buffer (20 mM HEPES, 6 mM MgCl2 and 1 mM EGTA, protease inhibitor tablets, pH 7.4) and placed in a cell disruption vessel at 1000 PSI for 30 minutes on ice. The pressurized contents are then released and spun down at 1000 RPMs and the supernatant is collected and further centrifuged at 15,000 RPMs to pellet the membranes. The membrane pellet is resuspended in membrane preparation buffer, snap frozen and stored at −80° C. for later use.
[…] Assay contents are then filtered through unifilter GF/C microplates and washed with 9×400 μl of cold wash buffer (25 mM HEPES, 5 mM MgCl2, 1 mM CaCl2), 500 mM NaCl, 0.1% Tween-20, pH 7.4). Assay plates are read using a Top Count NXT and Ki values for compounds are determined using a GraphPad Prism 6 non-linear regression analysis.
`CCC(=O)NCCNC(=O)/N=C(/N)NCCC[C@@H](NC(=O)C(c1ccccc1)c1cccc(OCCOCCOCCOCCOCCNC(=O)CN2CCN(CC(=O)O)CCN(CC(=O)O)CCN(CC(=O)O)CC2)c1)C(=O)NCc1ccc(O)cc1` (single isomer, unassigned) [Compound 101A] was tested, and the Ki was under 10 nM.
Work on `CCC(=O)NCCNC(=O)/N=C(/N)NCCC[C@@H](NC(=O)C(c1ccccc1)c1cccc(OCCOCCOCCOCCOCCNC(=O)CN2CCN(CC(=O)O)CCN(CC(=O)O)CCN(CC(=O)O)CC2)c1)C(=O)NCc1ccc(O)cc1` (single isomer, unassigned) [Compound 101B] yielded a Ki of under 10 nM.
`CCC(=O)NCCNC(=O)/N=C(/N)NCCC[C@@H](NC(=O)C(c1ccccc1)c1ccc(NC(=O)CCOCCOCCOCCOCCNC(=O)CN2CCN(CC(=O)O)CCN(CC(=O)O)CCN(CC(=O)O)CC2)cc1)C(=O)NCc1ccc(O)cc1` (single isomer, unassigned) [Compound 102A] was tested, and the Ki was 10 to 100 nM.
`CCC(=O)NCCNC(=O)/N=C(/N)NCCC[C@@H](NC(=O)C(c1ccccc1)c1ccc(NC(=O)CCOCCOCCOCCOCCNC(=O)CN2CCN(CC(=O)O)CCN(CC(=O)O)CCN(CC(=O)O)CC2)cc1)C(=O)NCc1ccc(O)cc1` (single isomer, unassigned) [Compound 102B] was tested, and the Ki was 10 to 100 nM.
`CCC(=O)NCCNC(=O)/N=C(/N)NCCC[C@@H](NC(=O)C(c1ccccc1)c1ccc(NCCCNC(=O)CCOCCOCCNC(=O)CN2CCN(CC(=O)O)CCN(CC(=O)O)CCN(CC(=O)O)CC2)cc1)C(=O)NCc1ccc(O)cc1` (single isomer, unassigned) [Compound 103A] showed a Ki of 10 to 100 nM.
For `CCC(=O)NCCNC(=O)/N=C(/N)NCCC[C@@H](NC(=O)C(c1ccccc1)c1ccc(NCCCNC(=O)CCOCCOCCNC(=O)CN2CCN(CC(=O)O)CCN(CC(=O)O)CCN(CC(=O)O)CC2)cc1)C(=O)NCc1ccc(O)cc1` (single isomer, unassigned) [Compound 103B], the Ki was under 10 nM.
`CCC(=O)NCCNC(=O)/N=C(/N)NCCC[C@@H](NC(=O)C(c1ccccc1)c1cccc(OCCCCNC(=O)[C@H](CS(=O)(=O)O)NC(=O)CN2CCN(CC(=O)O)CCN(CC(=O)O)CCN(CC(=O)O)CC2)c1)C(=O)NCc1ccc(O)cc1` (single isomer, unassigned) [Compound 107A] showed a Ki of 10 to 100 nM.
`CCC(=O)NCCNC(=O)/N=C(/N)NCCC[C@@H](NC(=O)C(c1ccccc1)c1cccc(OCCCCNC(=O)[C@H](CS(=O)(=O)O)NC(=O)CN2CCN(CC(=O)O)CCN(CC(=O)O)CCN(CC(=O)O)CC2)c1)C(=O)NCc1ccc(O)cc1` (single isomer, unassigned) [Compound 107B] gave a Ki of 10 to 100 nM.
Molecule `CCC(=O)NCCNC(=O)/N=C(/N)NCCC[C@@H](NC(=O)C(c1ccccc1)c1cccc(OCCCCNC(=O)CCOCCNC(=O)CN2CCN(CC(=O)O)CCN(CC(=O)O)CCN(CC(=O)O)CC2)c1)C(=O)NCc1ccc(O)cc1` (single isomer, unassigned) [Compound 108A] has a Ki of under 10 nM.
`CCC(=O)NCCNC(=O)/N=C(/N)NCCC[C@@H](NC(=O)C(c1ccccc1)c1cccc(OCCCCNC(=O)CCOCCNC(=O)CN2CCN(CC(=O)O)CCN(CC(=O)O)CCN(CC(=O)O)CC2)c1)C(=O)NCc1ccc(O)cc1` (single isomer, unassigned) [Compound 108B] gave a Ki of under 10 nM.
With `CCC(=O)NCCNC(=O)/N=C(/N)NCCC[C@@H](NC(=O)C(c1ccccc1)c1cccc(OCCCCNC(=O)[C@H](N)CCCCNC(=O)CN2CCN(CC(=O)O)CCN(CC(=O)O)CCN(CC(=O)O)CC2)c1)C(=O)NCc1ccc(O)cc1` (single isomer, unassigned) [Compound 109A] the Ki was under 10 nM.
Molecule `CCC(=O)NCCNC(=O)/N=C(/N)NCCC[C@@H](NC(=O)C(c1ccccc1)c1cccc(OCCCCNC(=O)[C@H](N)CCCCNC(=O)CN2CCN(CC(=O)O)CCN(CC(=O)O)CCN(CC(=O)O)CC2)c1)C(=O)NCc1ccc(O)cc1` (single isomer, unassigned) [Compound 109B] has a Ki of under 10 nM.
With `CCC(=O)NCCNC(=O)/N=C(/N)NCCC[C@@H](NC(=O)C(c1ccccc1)c1cccc(OCCCCNC(=O)CCC(NC(=O)CN2CCN(CC(=O)O)CCN(CC(=O)O)CCN(CC(=O)O)CC2)C(=O)O)c1)C(=O)NCc1ccc(O)cc1` (single isomer, unassigned) [Compound 110A] the Ki was 10 to 100 nM.
